{
  "source": "ChEMBL document CHEMBL1201862",
  "about": "“PubChem BioAssay data set” (2004)",
  "test_in_all_cases": "DTP human tumour cell line panel, 48 h",
  "key": {"HCT-15": {"system": "HCT-15"}, "HOP-92": {"system": "HOP-92"}, "DU-145": {"system": "DU-145"}, "UACC-257": {"system": "UACC-257"}, "NCI-H460": {"system": "NCI-H460"}, "OVCAR-4": {"system": "OVCAR-4"}, "NCI-H23": {"system": "NCI-H23"}, "UACC-62": {"system": "UACC-62"}, "LOX IMVI": {"system": "LOX IMVI"}, "NCI-H226": {"system": "NCI-H226"}, "T47D": {"system": "T47D"}, "M14": {"system": "M14"}, "RPMI-8226": {"system": "RPMI-8226"}, "HOP-62": {"system": "HOP-62"}, "U-251": {"system": "U-251"}, "SF-268": {"system": "SF-268"}, "MDA-N": {"system": "MDA-N"}, "OVCAR-5": {"system": "OVCAR-5"}, "OVCAR-3": {"system": "OVCAR-3"}, "SK-MEL-28": {"system": "SK-MEL-28"}, "SK-MEL-5": {"system": "SK-MEL-5"}, "HL-60": {"system": "HL-60"}, "Hs-578T": {"system": "Hs-578T"}, "PC-3": {"system": "PC-3"}, "HT-29": {"system": "HT-29"}, "SK-MEL-2": {"system": "SK-MEL-2"}, "OVCAR-8": {"system": "OVCAR-8"}, "SW-620": {"system": "SW-620"}, "MDA-MB-435": {"system": "MDA-MB-435"}, "SN12C": {"system": "SN12C"}, "IGROV-1": {"system": "IGROV-1"}, "SF-539": {"system": "SF-539"}, "SNB-75": {"system": "SNB-75"}, "SR": {"system": "SR"}, "KM12": {"system": "KM12"}, "COLO 205": {"system": "COLO 205"}, "HCC 2998": {"system": "HCC 2998"}, "HCT-116": {"system": "HCT-116"}, "786-0": {"system": "786-0"}, "NCI-H522": {"system": "NCI-H522"}, "NCI/ADR-RES": {"system": "NCI/ADR-RES"}, "A498": {"system": "A498"}, "CAKI-1": {"system": "CAKI-1"}, "TK-10": {"system": "TK-10"}, "K562": {"system": "K562"}, "ACHN": {"system": "ACHN"}, "BT-549": {"system": "BT-549"}, "Malme-3M": {"system": "Malme-3M"}, "CCRF-CEM": {"system": "CCRF-CEM"}, "MCF7": {"system": "MCF7"}, "SNB-19": {"system": "SNB-19"}, "A549": {"system": "A549"}, "SF-295": {"system": "SF-295"}, "MDA-MB-231": {"system": "MDA-MB-231"}, "UO-31": {"system": "UO-31"}, "EKVX": {"system": "EKVX"}, "SK-OV-3": {"system": "SK-OV-3"}},
  "note": "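Where inhibition never reached the appropriate level, the endpoint shown equals the highest concentration tested. Otherwise, values were interpolated linearly from a five-concentration, 48-hour dose response in 96-well plates. GI50 is the concentration that inhibits growth by half.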 Active and inactive are the calls of the source. No stated cut-off is given here; in the data, active = GI50 up to about 1.1 µM and inactive = higher.",
  "data": [
    {"smiles": "Cc1c2cccc-2ccc2c1[nH]c1ccc(Br)cc12", "values": [
      {"measurement": "GI50", "setting": "HCT-15", "result": 3.62, "unit": "µM"},
      {"measurement": "GI50", "setting": "HOP-92", "result": "3.61 µM (inactive)"},
      {"measurement": "GI50", "setting": "DU-145", "result": "10.9 µM (inactive)"},
      {"measurement": "GI50", "setting": "UACC-257", "result": "24.2 µM (inactive)"},
      {"measurement": "GI50", "setting": "NCI-H460", "result": "4.56 µM (inactive)"},
      {"measurement": "GI50", "setting": "OVCAR-4", "result": "1.96 µM (inactive)"},
      {"measurement": "GI50", "setting": "NCI-H23", "result": "6.44 µM (inactive)"},
      {"measurement": "GI50", "setting": "UACC-62", "result": "13 µM (inactive)"},
      {"measurement": "GI50", "setting": "LOX IMVI", "result": "4.44 µM (inactive)"},
      {"measurement": "GI50", "setting": "NCI-H226", "result": "2.04 µM (inactive)"},
      {"measurement": "GI50", "setting": "T47D", "result": "1.69 µM (inactive)"},
      {"measurement": "GI50", "setting": "M14", "result": "6.12 µM (inactive)"},
      {"measurement": "GI50", "setting": "RPMI-8226", "result": "3.15 µM (inactive)"},
      {"measurement": "GI50", "setting": "HOP-62", "result": "6.43 µM (inactive)"},
      {"measurement": "GI50", "setting": "U-251", "result": "3.21 µM (inactive)"},
      {"measurement": "GI50", "setting": "SF-268", "result": "4.6 µM (inactive)"},
      {"measurement": "GI50", "setting": "MDA-N", "result": "6.32 µM (inactive)"},
      {"measurement": "GI50", "setting": "OVCAR-5", "result": "3.94 µM (inactive)"},
      {"measurement": "GI50", "setting": "OVCAR-3", "result": "3.84 µM (inactive)"},
      {"measurement": "GI50", "setting": "SK-MEL-28", "result": "7.03 µM (inactive)"},
      {"measurement": "GI50", "setting": "SK-MEL-5", "result": "3.9 µM (inactive)"},
      {"measurement": "GI50", "setting": "HL-60", "result": "4.15 µM (inactive)"},
      {"measurement": "GI50", "setting": "Hs-578T", "result": "5.86 µM (inactive)"},
      {"measurement": "GI50", "setting": "PC-3", "result": "4.18 µM (inactive)"},
      {"measurement": "GI50", "setting": "HT-29", "result": "13.2 µM (inactive)"},
      {"measurement": "GI50", "setting": "SK-MEL-2", "result": "5.62 µM (inactive)"},
      {"measurement": "GI50", "setting": "OVCAR-8", "result": "7.36 µM (inactive)"},
      {"measurement": "GI50", "setting": "SW-620", "result": "4.75 µM (inactive)"},
      {"measurement": "GI50", "setting": "MDA-MB-435", "result": "4.7 µM (inactive)"},
      {"measurement": "GI50", "setting": "SN12C", "result": "12.9 µM (inactive)"},
      {"measurement": "GI50", "setting": "IGROV-1", "result": "2.56 µM (inactive)"},
      {"measurement": "GI50", "setting": "SF-539", "result": "4.81 µM (inactive)"},
      {"measurement": "GI50", "setting": "SNB-75", "result": "2.21 µM (inactive)"},
      {"measurement": "GI50", "setting": "SR", "result": "3.04 µM (inactive)"},
      {"measurement": "GI50", "setting": "KM12", "result": "2.47 µM (inactive)"},
      {"measurement": "GI50", "setting": "COLO 205", "result": "2.06 µM (inactive)"},
      {"measurement": "GI50", "setting": "HCC 2998", "result": "15.2 µM (inactive)"},
      {"measurement": "GI50", "setting": "HCT-116", "result": "4.85 µM (inactive)"},
      {"measurement": "GI50", "setting": "786-0", "result": "14.3 µM (inactive)"},
      {"measurement": "GI50", "setting": "NCI-H522", "result": "2.48 µM (inactive)"},
      {"measurement": "GI50", "setting": "NCI/ADR-RES", "result": "9.59 µM (inactive)"},
      {"measurement": "GI50", "setting": "A498", "result": "21.8 µM (inactive)"},
      {"measurement": "GI50", "setting": "CAKI-1", "result": "11.8 µM (inactive)"},
      {"measurement": "GI50", "setting": "TK-10", "result": "17.1 µM (inactive)"},
      {"measurement": "GI50", "setting": "K562", "result": "2.96 µM (inactive)"},
      {"measurement": "GI50", "setting": "ACHN", "result": "12.1 µM (inactive)"},
      {"measurement": "GI50", "setting": "BT-549", "result": "7.03 µM (inactive)"},
      {"measurement": "GI50", "setting": "Malme-3M", "result": "9.86 µM (inactive)"},
      {"measurement": "GI50", "setting": "CCRF-CEM", "result": "3.12 µM (inactive)"},
      {"measurement": "GI50", "setting": "MCF7", "result": "4.06 µM (inactive)"},
      {"measurement": "GI50", "setting": "SNB-19", "result": "7.64 µM (inactive)"},
      {"measurement": "GI50", "setting": "A549", "result": "4.2 µM (inactive)"},
      {"measurement": "GI50", "setting": "SF-295", "result": "4.23 µM (inactive)"},
      {"measurement": "GI50", "setting": "MDA-MB-231", "result": "4.33 µM (inactive)"},
      {"measurement": "GI50", "setting": "UO-31", "result": "4.65 µM (inactive)"},
      {"measurement": "GI50", "setting": "EKVX", "result": "1.78 µM (inactive)"},
      {"measurement": "GI50", "setting": "SK-OV-3", "result": "14.7 µM (inactive)"}
    ]}
  ]
}
